Assay results from ChEMBL document CHEMBL3616407, “The imidazo[1,2-a]pyridine ring system as a scaffold for potent dual phosphoinositide-3-kinase (PI3K)/mammalian target of rapamycin (mTOR) inhibitors” (Bioorg Med Chem Lett, 2015).

Columns and labels:
Assay type in all cases: ADME, organism-based
Conditions in all cases: in vivo
[1] = Volume of distribution in iv dosed rat
[2] = AUC in rat at 2 mg/kg, po
[3] = Oral bioavailability in rat at 2 mg/kg
Plasma = test: Unbound plasma concentration in mouse

COc1ncc(Nc2nc3ccc(C(C)(C)O)cn3c2-c2nc(C)nc(N)n2)cc1F
Vd [1]: 4.2 L/kg
AUC [2]: 640 ng·h/mL
bioavailability [3]: 51%
Cp(f) (Plasma): 84 nM
